Measurements taken from patent publication US20100081632A1, “High-content and high throughput assays for identification of lipid-regulating pathways, and novel therapeutic agents for lipid disorders” (Odyssey Thera, Inc., priority 2008, published 2010).

Columns and labels:
HepG2 cells = test: LDL uptake in HepG2 cells (human LDL conjugated to DyLight 549); format: cell-based; conditions: for x-fold increase (hepatic LDL uptake): HepG2
Excerpt: The assay uses human LDL conjugated to DyLight™ 549 as a fluorescent probe for detection of LDL uptake into HepG2 cells.
We assessED whether compounds that inhibit the PCSK9/LDLr assay would have activity on LDL uptake and metabolism in a relevant cell type. PCSK9 is thought to be a negative regulator of LDLr. Thus, we predicted that compounds inhibiting the PCSK9 PCA signal would increase LDL receptor expression and LDL uptake. An assay using human LDL conjugated to DyLight™ 549 as a fluorescent probe for detection of LDL uptake into cultured human hepatocytes. A separate assay, using an LDL receptor-specific polyclonal antibody and a DyLight™ 488-conjugated secondary antibody, was also performed to localize LDL receptors
Quantitation of the increased LDL uptake of these and other kinase inhibitors targeting Akt, mTOR, p38, GSK3 and VEGF is shown in Table 4.

PCSK9/LDLR complex = test: PCSK9/LDLR protein complementation assay (PCA) in transfected HEK293 cells; format: cell-based, human
Description: In one of the embodiments of the invention, the cell-based assay consists of transfected cDNAs encoding full-length PCSK9 and LDL receptor, each sequence linked in-frame to rationally designed fragments of a variant of green fluorescent protein. These two plasmid constructs were co-expressed in human HEK cells plated in 384-well poly-lysine coated plates. After 24-48 hours of incubation, drugs (or vehicle controls) were added to the media, and the existence and localization of PCSK9/LDL receptor complexes was quantified on an Opera automated confocal fluorescence microscopy platform (Perkin Elmer). Images were subjected to automated image analysis, and results quantified and subjected to statistical analysis.
HEK 293T cells were seeded in normal growth media containing DMEM and 10% FBS at 1.5×10^4 in PDL-coated 96-well plates 24 hours prior to transfection. Cells were transfected with 50 ng of each construct DNA per well with Fugene 6, using conditions recommended by the manufacturer. Cells were allowed to express the construct pairs for 24- or 48 h, then the cells were simultaneously fixed and stained with either a 1:300 dilution of Hoescht 33342 (Molecular Probes, Eugene, Oreg.) or a 1:1000 dilution of Draq5 (Biostatus, Shepshed, Leicestershire, U.K.) in 4% formaldehyde for 15 minutes at room temperature. The cells were washed to remove fixative, and overlaid with a small volume of Hank's Buffered Salt Solution. Images were acquired on a Discovery-1 (Molecular Devices) epifluorescence microscope using the 20× objective, and DAPI and FITC filter sets. (with excitation at 350 and 488 nm wave lengths) or on an Opera (Perkin Elmer) confocal microscope using the 20× water objective with the following excitation and emission settings: Ex 488 nm/Em 535 nm (YFP) and Ex 635 nm/Em 640 nm (Draq5).
To test for in vitro PCSK9 function and activity, we developed a protein complementation assay (PCA) with PCSK9-IFP2 and the LDL-IFP1 receptor (PCSK9/LDLR). Expression of wild type PCSK9-IFP2 in transfected HEK293 cells was confirmed by Western blot using an antibody against YFP (FIG. 2). Cotranfection of HEK cells with increasing ratios of PCSK9-IFP2 and LDLR-IFP1 DNA constructs results in increased PCA signal (FIG. 3) but not when each construct is expressed alone. The intracellular localization of the wild-type PCSK9-IFP2/LDLR-IFP1 PCA interaction is similar to the known localization of wild type PCSK9 in the endoplasmic reticulum (ER) and post-ER compartments in various cell types (20, 21). The PCA signal for the PCSK9-IFP2/LDLR-IFP1 pair appears to be localized to multiple intracellular trafficking sites including the ER, endosomes and the cell surface.
In order to test the viability of using the PCSK9-IFP2/LDLR-IFP1 PCA as a drug discovery tool, we tested a drug plate containing 50 known drugs at 3 doses in the assay (Table 10) as well as several protein kinase inhibitors (representative compounds are depicted in Table 11). […] We observed the following effects of known compounds on the PCSK9/LDLR complex:
A collection of small molecular weight compounds was screened. […] To expand on this observation, we characterized the effects of a larger panel of kinase inhibitors on the PCSK9/LDLr complex. 47 compounds representing a broad range of known receptor tyrosine and serine-threonine kinase inhibitors were assessed (table 2). A subset was identified that had inhibitory effects on the PCSK9/LDLr complex (degree of assay inhibition relative to control is indicated by “% control”, Table 2).

## CS(=O)(=O)CCNCc1ccc(-c2ccc3ncnc(Nc4ccc(OCc5cccc(F)c5)c(Cl)c4)c3c2)o1 [Lapatinib]
HepG2 cells; HepG2, 10 μM
  effect on LDL uptake (in words): dramatic increase in LDL uptake
HepG2 cells; dose 10 μM
  x-fold increase (LDL uptake in Hepg2 cells): 1.8 x-fold
HepG2 cells; dose 10 µM
  x-fold increase (hepatic LDL uptake): 1.8 x-fold
HepG2 cells; dose 30 μM
  x-fold increase (LDL uptake in Hepg2 cells): 1.9 x-fold
HepG2 cells; dose 30 µM
  x-fold increase (hepatic LDL uptake): 1.9 x-fold

## CN(C)CCCN1c2ccccc2CCc2ccccc21 [Imipramine]
PCSK9/LDLR complex; dose 150 μM
  % Control (PCSK9/LDLr PCA): 46%

## CO[C@H]1C[C@@H]2CC[C@@H](C)[C@@](O)(O2)C(=O)C(=O)N2CCCC[C@H]2C(=O)O[C@H]([C@H](C)C[C@@H]2CC[C@H](n3cnnn3)[C@H](OC)C2)CC(=O)[C@H](C)/C=C(\C)[C@@H](O)[C@@H](OC)C(=O)[C@H](C)C[C@H](C)/C=C/C=C/C=C/1C [Zotarolimus]
PCSK9/LDLR complex; dose 10 μM
  % Control (PCSK9/LDLr PCA): 37%

## CCN(CC)CCCCN1c2ccccc2Oc2ccc(Cl)cc21.Cl [Akt Inhibitor X, 10-(4′-(N-diethylamino)butyl)-2-chlorophenoxazine, HCl]
HepG2 cells; dose 1 μM
  x-fold increase (LDL uptake in Hepg2 cells): 1.4 x-fold
HepG2 cells; dose 1 µM
  x-fold increase (hepatic LDL uptake): 1.4 x-fold
HepG2 cells; dose 3 μM
  x-fold increase (LDL uptake in Hepg2 cells): 1.7 x-fold
HepG2 cells; dose 3 µM
  x-fold increase (hepatic LDL uptake): 1.7 x-fold

## CC[n+]1c(/C=C/N(C)c2ccccc2)n(-c2ccccc2)c2ccc(-c3nc4ccccc4s3)cc21 [Akt Inhibitor IV, 5-(2-Benzothiazolyl)-3-ethyl-2-[2-(methylphenylamino)ethenyl]-1-phenyl-1H-benzimidazolium iodide]
PCSK9/LDLR complex; dose 1 μM
  % Control (PCSK9/LDLr PCA): 65%
PCSK9/LDLR complex; dose 3 μM
  % Control (PCSK9/LDLr PCA): 40%
PCSK9/LDLR complex; dose 10 μM
  % Control (PCSK9/LDLr PCA): 56%

## C=C1CC[C@@H]2[C@](C)(CO)CCC[C@@]2(C)[C@@H]1CCC1=CCOC1=O [Andrograpanin]
PCSK9/LDLR complex; dose 100 μM
  % Control (PCSK9/LDLr PCA): 40%

## CCOC(=O)N1CCC(=C2c3ccc(Cl)cc3CCc3cccnc32)CC1 [Loratidine]
PCSK9/LDLR complex; dose 30 μM
  % Control (PCSK9/LDLr PCA): 59%

## C[S+]([O-])c1ccc(-c2nc(-c3ccc(F)cc3)c(-c3ccncc3)[nH]2)cc1 (centres unmarked) [SB 203580]
HepG2 cells; dose 3 μM
  x-fold increase (LDL uptake in Hepg2 cells): 3.0 x-fold
HepG2 cells; dose 3 µM
  x-fold increase (hepatic LDL uptake): 3.0 x-fold

## COc1ccnc(C[S+]([O-])c2nc3ccc(OC(F)F)cc3[nH]2)c1OC (centres unmarked) [Pantoprazole]
PCSK9/LDLR complex; dose 200 μM
  % Control (PCSK9/LDLr PCA): 36%

## Cc1cn(-c2cc(NC(=O)c3ccc(C)c(Nc4nccc(-c5cccnc5)n4)c3)cc(C(F)(F)F)c2)cn1 [Nilotinib]
PCSK9/LDLR complex
  effect on formation of PCSK9/LDLR complexes / PCA signal (in words): inhibit the formation of PCSK9/LDLR complexes
PCSK9/LDLR complex; dose 3 μM
  % Control (PCSK9/LDLr PCA): 48%
PCSK9/LDLR complex; dose 10 μM
  % Control (PCSK9/LDLr PCA): 65%

## COc1cc2ncnc(Nc3ccc(F)c(Cl)c3)c2cc1OCCCN1CCOCC1 [Gefitinib]
PCSK9/LDLR complex; dose 100 μM
  % Control (PCSK9/LDLr PCA): 53%

## O=NN(CCCl)C(=O)NC1CCCCC1 [Lomustine]
PCSK9/LDLR complex; dose 50 μM
  % Control (PCSK9/LDLr PCA): 50%
PCSK9/LDLR complex; dose 150 μM
  % Control (PCSK9/LDLr PCA): 54%

## O=C1NC(=O)C(=Cc2ccc(-c3ccc(F)cc3O)o2)S1 [PI3K gamma/CKII inhibitor, (5-(4-Fluoro-2-hydroxyphenyl)furan-2-ylmethylene)thiazolidine-2,4-dione]
PCSK9/LDLR complex; dose 3 μM
  % Control (PCSK9/LDLr PCA): 57%
PCSK9/LDLR complex; dose 10 μM
  % Control (PCSK9/LDLr PCA): 47%

## CC[C@H](CO)Nc1nc(NCc2ccccc2)c2ncn(C(C)C)c2n1 [Roscovitine]
PCSK9/LDLR complex; dose 40 μM
  % Control (PCSK9/LDLr PCA): 54%

## CCc1cc(-c2oncc2-c2ccc(OC)cc2)c(O)cc1OC [KRIBB3]
HepG2 cells; dose 1 μM
  x-fold increase (LDL uptake in Hepg2 cells): 1.3 x-fold
HepG2 cells; dose 1 µM
  x-fold increase (hepatic LDL uptake): 1.3 x-fold
HepG2 cells; dose 3 μM
  x-fold increase (LDL uptake in Hepg2 cells): 1.6 x-fold
HepG2 cells; dose 3 µM
  x-fold increase (hepatic LDL uptake): 1.6 x-fold

## Cc1c(OCC(F)(F)F)ccnc1C[S+]([O-])c1nc2ccccc2[nH]1 (centres unmarked) [Lanzoprazole]
PCSK9/LDLR complex
  effect on formation of PCSK9/LDLR complexes / PCA signal (in words): inhibit the formation of PCSK9/LDLR complexes
PCSK9/LDLR complex; dose 100 μM
  % Control (PCSK9/LDLr PCA): 53%

B1: Oncostatin M (OSM): regulator of hepatic LDL uptake, purported target Gp130/OSMR/LIFR (protein, UniProt P13725 26-221, looked up)
Oncostatin-M: AAIGSCSKEYRVLLGQLQKQTDLMQDTSRLLDPYIRIQGLDVPKLREHCRERPGAFPSEETLRGLGRRGFLQTLNATLGCVLHRLADLEQRLPKAQDLERSGLNIEDLEKLQMARPNILGLRNNIYCMAQLLDNSDTAEPTKAGRGASQPPTPTPASDAFQRKLEGCRFLHGYHRFMHSVGRVFSKWGESPNRSRR
HepG2 cells; dose 30 ng/ml
  x-fold increase (hepatic LDL uptake): 4.2 x-fold
